Legend:
[1] = system: IC9-Luc90-CD828Z CAR T cells; experiment: AP1903 abrogation of CAR T-cell activity in MM.1S tumor-bearing mice; assay type: in vivo, NSG mice
Description: (§1) First, MM.1S human SLAMF7^+ multiple myeloma cell line tumors were established in immunodeficient mice. In this model, the MM.1S cells formed a solid cutaneous mass. Measurable tumors were allowed to develop over 7 days, and then the mice were treated with a single intravenous infusion of MSGV1-IC9-Luc90-CD828Z-transduced human T cells. NSG mice (NOD.Cg-Prkdc^scid Il2rg^tm1Wjl/SzJ) from The Jackson Laboratory, Bar Harbor, Me., were used. Mice received intradermal injections of 4×10^6 MM.1S cells. The cells were suspended in a 1:1 mixture of MATRIGEL™ gelatinous protein mixture (BD Biosciences) and PBS (Phosphate-buffered saline) for injection. Tumors were allowed to grow for 7 days, and then each mouse received a single intravenous infusion of human T cells that were transduced with one of 3 CARs: IC9-Luc90-CD828Z (suicide gene+anti-SLAMF7 CAR), Luc90-CD828Z (anti-SLAMF7 CAR alone), or a negative-control anti-CD19 CAR Hu19-CD828Z. A 4th group was left untreated. All groups included 5 mice. After CAR T-cell infusion, the tumors were measured with calipers every 3 days. The longest length and the length perpendicular to the longest length and the tumor thickness were multiplied together to obtain the tumor volume in mm^3. When the longest length reached 15 mm, mice were sacrificed. Animal studies were approved by the National Cancer Institute Animal Care and Use Committee.
MM.1S tumors were established in NSG mice as described in Example 9. The mice were treated with 2×10^6 IC9-Luc90-CD828Z T cells. The mice received 5 mg/kg of AP1903 intraeritoneally for either 3 days or 12 days after the CAR T-cell infusion. […] Also levels of IC9-Luc90-CD828Z CART cells in the mice receiving AP1903 were reduced as compared to the mice receiving the vehicle.

IC9-expressing T cells = experiment: 6-hour and 48-hour post-rimiducid T cell death analysis; assay type: cell-based, human; conditions: for elimination of transduced T cells by AP1903: 1, 10 or 100 ng/mL; for annexin V staining of residual CAR^+ T cells: AP1903 6 hours; for annexin V staining of residual CAR+ cells: AP1903 48 hours
Description: On day 8 of culture, 1 million T cells from cultures that were either untransduced or transduced with one of the anti-SLAMF7 CARs cells were suspended at 1×10^6 T cells/mL in AIM V™ media (Invitrogen) plus 300 IU of interleukin-2. One million cells were added to each of 4 wells of a 12-well plate. A different concentration of AP1903 (MedChem Express, Princeton, N.J.) from was added to each well. AP1903 is also referred to as rimiducid. The concentrations of AP1903 evaluated were: 0, 1, 10, or 100 ng/mL.
Six hours and 48 hours after these cultures were set up, the cells were counted, washed, and stained with Protein L as described above. Next, the cells were washed twice with PBS, re-suspended in Annexin V binding buffer (BD Biosciences), and incubated with allophycocyanin-conjugated Annexin V (BD Biosciences) and 7AAD (BD Biosciences) for 15 minutes (mins) at room temp. The cells were immediately analyzed by flow cytometry.

MM.1S = experiment: IFN-gamma ELISA, CAR T cells with MM.1S target cells; assay type: cell-based, human; conditions: Table E
Text: (§2) MM.1S is a SLAMF7^+ multiple myeloma cell line that was obtained from American Type Culture Collection (ATCC). A549 is a BCMA-negative lung cancer cell line (ATCC). TC71 is a BCMA-negative sarcoma cell line. CCRF-CEM, 293T, and A549 are SLAMF7-negative cell lines (ATCC). COL0207, HepG2, U251, Panc10.05, and TC71 are […] that were kind gifts from Dr. Steven Rosenberg, National Cancer Institute. SLAMF7-K562 are K562 cells (ATCC) which were transduced with the gene for full-length SLAMF7. SLAMF7-RPMI are RPMI8226 cells (ATCC) which were transduced with the gene for full-length SLAMF7. NGFR-K562 are K562 cells which were transduced with the gene for low-affinity nerve growth factor (Kochenderfer et al., J. Immunother., 32(7): 689-702 (2009)). All of the human samples mentioned were obtained from patients enrolled in IRB-approved clinical trials at the National Cancer Institute.
(§3) One-hundred thousand SLAMF7^+ or SLAMF7-negative target cells were combined with 100,000 CAR-transduced T cells in duplicate wells of a 96 well round bottom plate in 200 µL of AIM V™ medium (Invitrogen) plus 5% human serum. The plates were incubated at 37° C. for 18-20 hours. Following the incubation, ELISAs (enzyme-linked immunosorbent assays) for IFNγ were performed by using standard methods.
(§4) All values are pg/mL of IFN-gamma. T cells that were either untransduced or transduced with one of the indicated CARs were cultured with target cells overnight, and a standard IFN-gamma ELISA was performed on the culture supernatant.

SLAMF7-K562 target cells = experiment: CFSE proliferation assay; assay type: cell-based, human; conditions: SLAMF7-K562 versus NGFR-K562 target cells, 4 days (FIGS. 8B, 8C)
Text: Cocultures were set up in 24-well plates. Target cells included in cocultures were either 0.5×10^6 irradiated SLAMF7-K562 cells or 0.5×10^6 irradiated NGFR-K562 cells. The cocultures also included 1×10^6 T cells from cultures that had been transduced with either […]. The T cells were labeled with carboxy fluorescein diacetate succinimidyl ester (CFSE, Invitrogen) as previously described. The medium used in the cocultures was AIM V™ (Invitrogen) plus 5% human AB serum. IL-2 was not added to the medium. Four days after initiation, the live cells in each coculture were counted with trypan blue for dead cell exclusion, and flow cytometry was performed by Protein L staining.

T cells only = experiment: IFN-gamma ELISA, T cells only (no target cells); assay type: cell-based, human; conditions: Table E
Description: as §3
(§5) The T cells columns indicate whether T cells were transduced with Luc90-CD828Z, Luc63-CD828Z, or were untransduced. The % CAR^+ in Table B-1 was determined by staining the T cells with Protein L. Except for the % CAR^+ column, all values are pg/mL of IFN-gamma. T cells that were either untransduced or transduced with one of the indicated CARs were cultured with target cells overnight and a standard IFN-gamma ELISA was performed on the culture supernatant.
as §4
(§6) The values in the cells are pg/mL of IFN-gamma. T cells that were either untransduced or transduced with one of the indicated CARs were cultured with target cells overnight, and a standard IFN-gamma ELISA was performed on the culture supernatant. The concentrations of 0, 50, or 200 ng/mL at the top of each column indicates the concentration of soluble SLAMF7 added to all T cell plus target cell overnight cultures in that column. The soluble SLAMF7 was added at the beginning of the overnight culture.

NGFR-K562 = experiment: IFN-gamma ELISA, CAR T cells with NGFR-K562 target cells; assay type: cell-based, human; conditions: Table E
Text: as §2, §3, §5, §4, §6

SLAMF7-K562 = experiment: IFN-gamma ELISA, CAR T cells cultured overnight with SLAMF7-K562 target cells; assay type: cell-based, human; conditions: Table E; overnight culture
Text: as §2, §3, §5, §4

SLAMF7^+ MM.1S cells = experiment: Cytotoxicity assay (4 hours, relative to CCRF-CEM cells); assay type: cell-based, human; conditions: MM.1S relative to control CCRF-CEM cells (FIG. 8A)
Description: Cytotoxicity assays were conducted as previously described (see Kochenderfer et al., J. Immunother., 32(7): 689-702 (2009)). Cytotoxicity was measured by comparing survival of SLAMF7^+ target cells relative to the survival of negative-control CCRF-CEM cells. Both of these cell types were combined in the same tubes with CAR-transduced T cells. CCRF-CEM negative control cells were labeled with the fluorescent dye 5-(and -6)-(((4-chloromethyl)benzoyl)amino) tetramethylrhodamine (CMTMR) (Invitrogen), and SLAMF7^+ target cells were labeled with CFSE. Cocultures were set up in sterile 5 mL test tubes (BD Biosciences) in duplicate at multiple T cell to target cell ratios. The target cells contained in the tubes were 50,000 SLAMF7^+ target cells along with 50,000 CCRF-CEM negative-control cells. The cultures were incubated for 4 hours at 37° C. Immediately after the incubation, 7AAD (7-amino-actinomycin D) (BD Biosciences) was added, and flow cytometry acquisition was performed. For each T cell plus target-cell culture, the percent survival of SLAMF7^+ target cells was determined by dividing the percent live SLAMF7^+ cells by the percent live CCRF-CEM negative control cells. The corrected percent survival of SLAMF7^+ target cells was calculated by dividing the percent survival of SLAMF7^+ target cells in each T cell plus target cell culture by the ratio of the percent live SLAMF7^+ target cells to percent live CCRF-CEM negative-control cells in tubes containing only SLAMF7^+ target cells and CCRF-CEM cells without effector T cells. This correction was necessary to account for variation in the starting cell numbers and for spontaneous target cell death. Cytotoxicity was calculated as follows: the percent cytotoxicity of […] target cells=100−corrected percent survival of SLAMF7^+ target cells.

CCRF-CEM = experiment: IFN-gamma ELISA, CAR T cells with CCRF-CEM target cells; assay type: cell-based, human; conditions: Table E
Text: as §2, §3, §4

[2] = system: MM.1S human SLAMF7^+ multiple myeloma solid tumors; experiment: MM.1S solid tumor model in NSG mice, anti-tumor efficacy; assay type: in vivo; conditions: 2 million CAR^+ T cells per mouse, 5 mice per group (FIG. 17)
Description: as §1
FIGS. 16A-16B show a dose-titration of IC9-Luc90-CD828Z-expressing T cells. In this experiment, immunocompromised NSG mice were injected intradermally with 4×10^6 MM.1S cells to form a solid mass. Mice were then treated with a single infusion of 0.5×10^6, 2×10^6, or 8×10^6, IC9-Luc90-CD828Z-expressing T cells. […] The tumor volume curves end when the first mouse of a group was sacrificed.
MM.'S tumors were established in NSG mice as described in Example 9. FIGS. 17A-17B show results in which mice bearing MM.1S tumors were treated with T cells expressing one of 3 different CARs: IC9-Luc90-CD828Z (suicide gene+anti-SLAMF7 CAR), Luc90-CD828Z (anti-SLAMF7 CAR alone), or a negative-control anti-CD19 CAR Hu19-CD828Z. A 4th group was left untreated in both experiments. All groups included 5 mice. The CARP T cell dose was 2 million CARP T cells per mouse. There were 5 mice in all groups.

[3] = T cells transduced with IC9-Luc90-CD828Z
[4] = T cells transduced with Luc90-CD828Z-IC9

CC[C@H](C(=O)N1CCCC[C@H]1C(=O)O[C@H](CCc1ccc(OC)c(OC)c1)c1cccc(OCC(=O)NCCNC(=O)COc2cccc([C@@H](CCc3ccc(OC)c(OC)c3)OC(=O)[C@@H]3CCCCN3C(=O)[C@@H](CC)c3cc(OC)c(OC)c(OC)c3)c2)c1)c1cc(OC)c(OC)c(OC)c1 [AP1903]
tumor outcome in mice receiving AP1903 after CAR T cells ([1]; 2×10^6 IC9-Luc90-CD828Z T cells, AP1903 5 mg/kg intraperitoneally (FIG. 18)): progressive tumors | levels of IC9-Luc90-CD828Z CAR T cells in mice ([1]; AP1903 5 mg/kg compared to vehicle): reduced | elimination of transduced T cells by AP1903 (IC9-expressing T cells; T cells transduced with IC9-Luc90-CD828Z, 6 hours): most transduced cells exposed to either 1, 10, or 100 ng/mL of AP1903 were eliminated | elimination of transduced T cells by AP1903 (IC9-expressing T cells; T cells transduced with IC9-Luc90-CD828Z, 48 hours): most transduced cells exposed to either 1, 10, or 100 ng/mL of AP1903 were eliminated | annexin V staining of residual CAR^+ T cells (IC9-expressing T cells; [3]): most residual CAR^+ T cells in the AP1903-treated cultures were annexin V^+ | annexin V staining of residual CAR+ cells (IC9-expressing T cells; [3]): most residual CAR+ cells were annexin V^+ | elimination of transduced T cells by AP1903 (IC9-expressing T cells; T cells transduced with Luc90-CD828Z-IC9, 6 hours): most transduced cells exposed to either 1, 10, or 100 ng/mL of AP1903 were eliminated | elimination of transduced T cells by AP1903 (IC9-expressing T cells; T cells transduced with Luc90-CD828Z-IC9, 48 hours): most transduced cells exposed to either 1, 10, or 100 ng/mL of AP1903 were eliminated | annexin V staining of residual CAR^+ T cells (IC9-expressing T cells; [4]): most residual CAR^+ T cells in the AP1903-treated cultures were annexin V^+ | annexin V staining of residual CAR+ cells (IC9-expressing T cells; [4]): most residual CAR+ cells were annexin V^+ | dependence of elimination on AP1903 concentration (IC9-expressing T cells; clinically-relevant range of concentrations tested (1-100 ng/mL)): did not depend on the concentration of AP1903

Luc90-CD828Z-IC9: CAR plus suicide gene construct (SEQ ID NO: 30): Luc90-CD828Z, T2A, IC9 suicide gene 3′ to the CAR
IFN-gamma, MM.1S (MM.1S): 1333 pg/mL | proliferation (CFSE dilution) (SLAMF7-K562 target cells): proliferated more | IFN-gamma, T-cells Alone (T cells only): 39 pg/mL | IFN-gamma, NGFR-K562 (NGFR-K562): 33 pg/mL | IFN-gamma, SLAMF7-K562 (SLAMF7-K562): 2249 pg/mL | killing of SLAMF7^+ target cells (SLAMF7^+ MM.1S cells): specifically killed the SLAMF7^+ MM.1S cells | IFN-gamma, CCRF-CEM (CCRF-CEM): 42 pg/mL

Hu19-CD828Z: negative-control anti-CD19 CAR [reference compound]
anti-tumor activity [2]: progressive tumors

— patent publication US11951131B2, “Anti-SLAMF7 chimeric antigen receptors” (The United States of America, as represented by the …, priority 2018, dated 2024)
